Source: patent US20260345619A1 (Principia Biopharma Inc., priority 2023, published 2026)

Test: Loss of asthma control (LOAC) events, 12-week ICS/LABA withdrawal study
Format: in vivo, human
Settings: for RD vs. Placebo / LOAC, number / OR vs. placebo: 400 mg BID
Text: The general construct of this 12-week Loss of Asthma Control (LOAC) study consisted of a 4-week standardized ICS/LABA background therapy stabilization phase, a 4or 5-week background therapy withdrawal phase and a 3- or 4-week no background therapy phase, followed by a 4-week post IMP treatment safety follow-up period at the beginning of which, pre-screening asthma controller medications are restarted. Participants had access to short-acting β-agonist (SABA) reliever medication at all times during the protocol.
The primary endpoint was the proportion of patients with LOAC. The key secondary endpoint for the study was change in pre-bronchodilator FEV1 from baseline at EOT.
The primary endpoint was proportion of participants with LOAC during the 12-week treatment period.
Note that if the number of participants in some regions was too low, these regions may have been pooled with other regions. This strategy also applied to all the rest of the analyses where region was one of the covariates.
To assess the consistency in treatment effects across different subgroup levels, subgroup analyses were to be performed for the primary efficacy endpoint with respect to age group, gender, region, and other factors.
Secondary endpoints included pre-bronchodilator FEV1 change from baseline at EOT, ACQ-5 score change from baseline, and AQLQ score change from baseline. Other secondary and exploratory endpoints are described in Table 2.

[1] = all others than low EOS and low FeNO
[2] = background ICS/LABA dose Medium
[3] = baseline IgA <Median (2600) IU/mL
[4] = baseline IgA ≥Median (2600) IU/mL
[5] = baseline IgE <Median (210.8) IU/mL
[6] = baseline IgE ≥Median (210.8) IU/mL
[7] = baseline percent predicted FEV1 <Median (68)
[8] = baseline percent predicted FEV1 ≥ Median (68)
[9] = baseline pre-BD FEV1 <Median (2.022) L
[10] = baseline pre-BD FEV1 ≥Median (2.022) L
[11] = blood eosinophil level 1 <0.15 (10^9/L)
[12] = blood eosinophil level 1 ≥0.15 (10^9/L)
[13] = blood eosinophil level 2 <0.3 (10^9/L)
[14] = blood eosinophil level 2 ≥0.3 (10^9/L)
[15] = 400 mg TID cohort, Eastern Europe, n = 43
[16] = 400 mg TID cohort, Latin America, n = 19

CC(C)(C=C(C#N)C(=O)N1CCC[C@@H](n2nc(-c3ccc(Oc4ccccc4)cc3F)c3c(N)ncnc32)C1)N1CCN(C2COC2)CC1 (mixture of isomers) [rilzabrutinib, (R)-2-[3-[4-amino-3-(2-fluoro-4-phenoxy-phenyl)pyrazolo[3,4-d]pyrimidin-1-yl]piperidine-1-carbonyl]-4-methyl-4-[4-(oxetan-3-yl)piperazin-1-yl]pent-2-enenitrile]
RD vs. Placebo (age at onset ≥18-<40 years): −0.314 | LOAC, number (age at onset ≥18 years): 7 | OR vs. placebo (age at onset ≥18 years): 0.323 | RD vs. Placebo (age at onset ≥18 years): −0.258 | LOAC, number (age at onset ≥40 years): 3 | OR vs. placebo (age at onset ≥40 years): 3.000 | RD vs. Placebo (age at onset ≥40 years): 0.250 | LOAC, number [1]: 12 | OR vs. placebo [1]: 0.808 | RD vs. Placebo [1]: −0.053 | LOAC, number (atopic medical conditions: No): 4 | OR vs. placebo (atopic medical conditions: No): 0.380 | RD vs. Placebo (atopic medical conditions: No): −0.204 | LOAC, number (atopic medical conditions: Yes): 8 | OR vs. placebo (atopic medical conditions: Yes): 0.681 | RD vs. Placebo (atopic medical conditions: Yes): −0.069 | LOAC, number (background ICS/LABA dose High): 11 | OR vs. placebo (background ICS/LABA dose High): 0.737 | RD vs. Placebo (background ICS/LABA dose High): −0.075 | LOAC, number [2]: 1 | RD vs. Placebo [2]: −0.467 | OR vs. placebo (baseline ACQ-5 >2): 0.475 | LOAC, number (baseline ACQ-5 ≤2): 7 | OR vs. placebo (baseline ACQ-5 ≤2): 0.651 | RD vs. Placebo (baseline ACQ-5 ≤2): −0.098 | LOAC, number (baseline FeNO level 1 <25 ppb): 3 | OR vs. placebo (baseline FeNO level 1 <25 ppb): 0.261 | RD vs. Placebo (baseline FeNO level 1 <25 ppb): −0.227 | LOAC, number (baseline FeNO level 1 ≥25 ppb): 9 | OR vs. placebo (baseline FeNO level 1 ≥25 ppb): 0.946 | RD vs. Placebo (baseline FeNO level 1 ≥25 ppb): −0.007 | LOAC, number (baseline FeNO level 2 <35 ppb): 8 | OR vs. placebo (baseline FeNO level 2 <35 ppb): 0.448 | RD vs. Placebo (baseline FeNO level 2 <35 ppb): −0.198 | LOAC, number (baseline FeNO level 2 ≥35 ppb): 4 | OR vs. placebo (baseline FeNO level 2 ≥35 ppb): 0.800 | RD vs. Placebo (baseline FeNO level 2 ≥35 ppb): −0.053 | LOAC, number [3]: 4 | OR vs. placebo [3]: 0.205 | RD vs. Placebo [3]: −0.365 | LOAC, number [4]: 8 | OR vs. placebo [4]: 1.633 | RD vs. Placebo [4]: 0.122 | LOAC, number (baseline IgE <100 IU/mL): 2 | OR vs. placebo (baseline IgE <100 IU/mL): 0.412 | RD vs. Placebo (baseline IgE <100 IU/mL): −0.220 | LOAC, number [5]: 6 | OR vs. placebo [5]: 0.744 | RD vs. Placebo [5]: −0.053 | LOAC, number (baseline IgE ≥100 IU/mL): 10 | OR vs. placebo (baseline IgE ≥100 IU/mL): 0.652 | RD vs. Placebo (baseline IgE ≥100 IU/mL): −0.092 | LOAC, number [6]: 6 | OR vs. placebo [6]: 0.604 | RD vs. Placebo [6]: −0.124 | LOAC, number [7]: 7 | OR vs. placebo [7]: 0.700 | RD vs. Placebo [7]: −0.088 | OR vs. placebo [8]: 0.556 | RD vs. Placebo [8]: −0.143 | LOAC, number [9]: 7 | OR vs. placebo [9]: 0.700 | RD vs. Placebo [9]: −0.088 | OR vs. placebo [10]: 0.556 | RD vs. Placebo [10]: −0.143 | LOAC, number [11]: 2 | OR vs. placebo [11]: 0.527 | RD vs. Placebo [11]: −0.135 | LOAC, number [12]: 10 | OR vs. placebo [12]: 0.737 | RD vs. Placebo [12]: −0.077 | OR vs. placebo [13]: 0.231 | RD vs. Placebo [13]: −0.197 | LOAC, number [14]: 7 | OR vs. placebo [14]: 0.951 | RD vs. Placebo [14]: −0.013 | LOAC, number (low EOS (<0.15) and low FeNO (<25)): 0 | LOAC, number (smoking history Former): 3 | OR vs. placebo (smoking history Former): 3.000 | RD vs. Placebo (smoking history Former): 0.250 | LOAC, number (smoking history Never): 9 | OR vs. placebo (smoking history Never): 0.474 | RD vs. Placebo (smoking history Never): −0.179 | LOAC incidence, number of participants [15]: 8 | LOAC incidence, percentage [15]: (18.6) | LOAC OR vs. placebo (400 mg TID cohort, Eastern Europe, 95% CI (0.187, 1.368)): 0.506 | LOAC incidence, number of participants [16]: 4 | LOAC incidence, percentage [16]: (21.1) | LOAC OR vs. placebo (400 mg TID cohort, Latin America, 95% CI (0.166, 3.357)): 0.747 | LOAC RD vs. placebo (400 mg TID cohort, Latin America, 95% CI (−0.322, 0.217)): −0.053
